A short description of test [1]: NIH-3T3 fibroblast cytotoxicity, dose response, cytotoxicity control, cell-based, fluorescence, Alamar Blue, secondary assay (AID 2327).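 Further: NIH-3T3 mouse fibroblasts cultured with fluconazole at 8 µg/mL.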 In kind it is functional. (The colour change of resazurin is a common sign of viable cells or microbes.)
Test [2] is described as follows: fluconazole-exposed Candida albicans growth modulators – fluorescence, retest, confirmation (AID 2467). It counts as functional, cell-based.
Test [3] in a line: viability of uninfected HEp-2 cells – cell-based, HTS, cytotoxicity control for RSV inhibitor project, dose response (AID 2410). It counts as functional. The conditions noted are these: human respiratory syncytial virus.
The target of test [4] is Induced myeloid leukemia cell differentiation protein Mcl-1 (Homo sapiens, UniProt Q07820). In kind it is functional.
Test [5] can be described thus: Trypanosoma cruzi growth suppression in host cells – NIH3T3 host cells, beta-gal luminescence, confirmation (AID 2044).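 Further: intracellular parasites grown in NIH/3T3 mouse fibroblasts as host cells; luminescent beta-galactosidase reporter signal from transgenic T. cruzi replicating inside host cells; inhibitors lower the luminescence signal.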 In kind it is functional, cell-based.
A short description of test [6]: NIH3T3 cell viability loss – ATP luminescence, mouse fibroblasts, counter-screen, dose response (AID 2010).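 Further: cells exposed to compound for about 90 hours before reading.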 It counts as functional, cell-based. A general note: A counterscreen serves to expose hits that act by an unwanted route or on another target.
The target in test [7] is T1, Heat shock factor protein 1 (Mus musculus, UniProt P38532).
T1 sequence (P38532 whole entry): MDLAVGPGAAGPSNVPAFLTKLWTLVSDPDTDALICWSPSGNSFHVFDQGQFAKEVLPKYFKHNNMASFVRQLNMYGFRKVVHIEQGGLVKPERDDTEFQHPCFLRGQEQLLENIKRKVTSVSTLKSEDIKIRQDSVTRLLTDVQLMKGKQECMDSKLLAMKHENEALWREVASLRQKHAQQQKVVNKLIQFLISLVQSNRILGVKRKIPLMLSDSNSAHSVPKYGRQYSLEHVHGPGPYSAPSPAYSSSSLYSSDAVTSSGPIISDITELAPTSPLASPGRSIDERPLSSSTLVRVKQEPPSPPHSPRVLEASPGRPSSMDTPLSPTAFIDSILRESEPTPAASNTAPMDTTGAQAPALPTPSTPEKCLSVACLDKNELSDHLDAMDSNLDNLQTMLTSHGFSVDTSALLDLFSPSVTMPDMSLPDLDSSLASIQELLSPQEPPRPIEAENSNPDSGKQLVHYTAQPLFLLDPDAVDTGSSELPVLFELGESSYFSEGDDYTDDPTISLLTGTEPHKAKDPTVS
Put plainly: enhancement of HSF1-driven luciferase signal – cell-based, NIH3T3, luminescence, dose retest, confirmation (AID 435004).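 Further: stress induced by proteasome inhibitor MG132 added 30 min after compound; luciferase reporter driven by HSF1 response element in NIH3T3 cells; actives raise luminescence as potentiators of the MG132 stress response.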 In kind it is functional.

Test [8] concerns the target T2, Corticotropin-releasing factor receptor 2/Corticotropin-releasing factor-binding protein (Homo sapiens, UniProt P24387+Q13324).
T2 sequence (Q13324 whole entry): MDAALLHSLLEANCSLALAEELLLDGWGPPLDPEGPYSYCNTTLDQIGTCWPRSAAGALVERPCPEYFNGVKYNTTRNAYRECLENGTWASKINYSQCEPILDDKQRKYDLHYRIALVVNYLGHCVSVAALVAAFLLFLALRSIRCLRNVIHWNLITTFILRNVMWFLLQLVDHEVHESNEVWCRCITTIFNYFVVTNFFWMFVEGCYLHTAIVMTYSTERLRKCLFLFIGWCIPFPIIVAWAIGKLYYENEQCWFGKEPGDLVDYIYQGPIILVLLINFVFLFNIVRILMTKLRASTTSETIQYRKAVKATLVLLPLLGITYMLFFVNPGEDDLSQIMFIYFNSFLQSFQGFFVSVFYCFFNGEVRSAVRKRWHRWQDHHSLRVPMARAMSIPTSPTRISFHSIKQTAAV
T2 sequence (P24387 whole entry): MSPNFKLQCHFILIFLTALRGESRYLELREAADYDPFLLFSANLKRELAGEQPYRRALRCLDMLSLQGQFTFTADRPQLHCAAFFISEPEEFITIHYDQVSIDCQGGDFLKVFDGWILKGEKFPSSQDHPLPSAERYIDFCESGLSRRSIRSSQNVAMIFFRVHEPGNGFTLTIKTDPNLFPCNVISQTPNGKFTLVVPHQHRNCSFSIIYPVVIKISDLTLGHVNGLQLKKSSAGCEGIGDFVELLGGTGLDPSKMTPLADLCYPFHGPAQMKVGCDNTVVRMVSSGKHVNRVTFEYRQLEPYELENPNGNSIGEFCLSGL
Description: Dose Response confirmation of uHTS hits for small molecule antagonists of the CRF-binding protein and CRF-R2 receptor complex. In kind it is functional. The following applies: read-out: IC50_Mean.

The target of test [9] is T2, Corticotropin-releasing factor receptor 2/Corticotropin-releasing factor-binding protein. Description: activators of CRF receptor 2 with binding protein – uHTS hits, confirmation (AID 602473). In kind it is functional. The conditions noted are these: read-out: EC50_Mean.
Test [10] is described as follows: viability of PTEN-deleted HCT116 cells – cell-based, HCT116 PTEN knockout, dose response (AID 1047).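 Further: HCT116 colon tumor cells with PTEN knocked out; cells exposed to compound for 60 hours before readout; potency for loss of cell viability measured by luminescence.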 In kind it is functional.
Test [11] in a line: reduction of Shn3 3'UTR-driven luciferase in osteoblasts – cell-based, Clone20 osteoblasts, firefly luciferase, cherry-picked, dose response (AID 624132).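 Further: firefly luciferase luminescence from reporter carrying the Shn3 3'UTR in osteoblasts.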 It counts as functional.
The next test has as its system P388/ADR. Description: cells. In kind it is functional. The following applies: Mus musculus.
In the next test the test system is SN12K1. Description: cells. In kind it is functional. The conditions noted are these: Homo sapiens.
In a further test the target is T3, Cytochrome P450 1A2 (Homo sapiens, UniProt P05177).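 Further: PubChem cytochrome P450 panel assay, CYP1A2 panel member.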
T3 sequence (P05177 whole entry): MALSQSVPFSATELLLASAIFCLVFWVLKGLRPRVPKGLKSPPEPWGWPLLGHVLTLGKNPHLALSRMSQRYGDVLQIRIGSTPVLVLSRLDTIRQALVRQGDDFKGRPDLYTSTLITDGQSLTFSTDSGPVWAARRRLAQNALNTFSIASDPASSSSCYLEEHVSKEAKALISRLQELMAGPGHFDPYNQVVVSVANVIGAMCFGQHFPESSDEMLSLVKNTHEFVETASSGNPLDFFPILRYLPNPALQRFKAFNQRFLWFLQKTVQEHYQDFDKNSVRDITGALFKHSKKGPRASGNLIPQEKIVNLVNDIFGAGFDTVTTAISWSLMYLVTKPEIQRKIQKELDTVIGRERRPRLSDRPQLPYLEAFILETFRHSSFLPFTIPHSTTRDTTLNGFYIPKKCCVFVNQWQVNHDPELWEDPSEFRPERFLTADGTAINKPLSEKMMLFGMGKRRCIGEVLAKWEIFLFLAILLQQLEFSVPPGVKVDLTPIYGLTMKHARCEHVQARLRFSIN

A further test addresses Cytochrome P450 3A4 (Homo sapiens, UniProt P08684).
In another test the target is Cytochrome P450 2C19 (Homo sapiens, UniProt P33261). Put plainly: Cytochrome panel assay with activity outcomes. Panel member name: p450-cyp2c19 Compounds with AC50 equal or less than 10 uM are considered active. It counts as functional. The following applies: read-out: AC50.

Calls of active or inactive are those of the source.

Induced myeloid leukemia cell differentiation protein Mcl-1, sequence (Q07820 whole entry): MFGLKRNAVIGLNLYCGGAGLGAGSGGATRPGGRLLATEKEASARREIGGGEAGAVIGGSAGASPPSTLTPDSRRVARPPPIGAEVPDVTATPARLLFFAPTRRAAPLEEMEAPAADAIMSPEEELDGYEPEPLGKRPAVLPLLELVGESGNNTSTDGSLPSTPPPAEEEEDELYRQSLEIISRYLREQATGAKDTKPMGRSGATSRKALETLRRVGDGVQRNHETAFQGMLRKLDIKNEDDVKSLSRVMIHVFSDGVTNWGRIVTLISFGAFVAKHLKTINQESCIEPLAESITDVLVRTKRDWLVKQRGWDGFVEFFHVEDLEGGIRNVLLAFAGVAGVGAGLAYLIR
Cytochrome P450 2C19, sequence (P33261 whole entry): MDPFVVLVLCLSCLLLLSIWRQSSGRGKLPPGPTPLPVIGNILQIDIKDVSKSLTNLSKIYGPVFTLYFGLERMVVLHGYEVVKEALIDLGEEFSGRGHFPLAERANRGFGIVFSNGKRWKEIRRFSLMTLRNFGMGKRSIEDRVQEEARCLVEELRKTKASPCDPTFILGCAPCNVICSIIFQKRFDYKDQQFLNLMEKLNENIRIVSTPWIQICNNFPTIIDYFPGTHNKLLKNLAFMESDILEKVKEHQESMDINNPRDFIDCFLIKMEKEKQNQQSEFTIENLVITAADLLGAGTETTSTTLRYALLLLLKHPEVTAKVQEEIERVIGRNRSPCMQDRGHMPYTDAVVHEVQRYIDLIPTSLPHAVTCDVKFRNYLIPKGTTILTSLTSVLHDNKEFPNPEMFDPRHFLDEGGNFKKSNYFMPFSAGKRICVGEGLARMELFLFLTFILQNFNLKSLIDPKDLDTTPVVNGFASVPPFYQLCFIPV
Cytochrome P450 3A4, sequence (P08684 whole entry): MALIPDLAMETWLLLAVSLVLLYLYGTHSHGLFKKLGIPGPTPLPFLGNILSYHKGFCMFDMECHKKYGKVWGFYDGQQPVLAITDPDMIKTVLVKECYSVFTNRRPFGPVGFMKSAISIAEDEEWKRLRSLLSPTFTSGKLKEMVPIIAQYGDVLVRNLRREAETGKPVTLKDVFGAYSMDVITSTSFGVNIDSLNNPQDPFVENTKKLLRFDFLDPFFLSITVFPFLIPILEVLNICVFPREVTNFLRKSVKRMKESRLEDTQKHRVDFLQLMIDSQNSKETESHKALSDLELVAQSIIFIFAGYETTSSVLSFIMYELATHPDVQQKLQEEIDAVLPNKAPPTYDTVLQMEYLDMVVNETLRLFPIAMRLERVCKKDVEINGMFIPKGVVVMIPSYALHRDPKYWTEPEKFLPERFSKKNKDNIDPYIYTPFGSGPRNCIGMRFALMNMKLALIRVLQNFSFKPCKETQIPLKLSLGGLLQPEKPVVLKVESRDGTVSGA

On to `Cc1nc2sc(C(c3cccc(F)c3)N3CCCC(C)C3)c(O)n2n1` (stereo unspecified), for which the EC50 in [1] is > 150 µM (inactive); in test [2] it was 1.82 µM (active).
For the compound `COC(=O)c1ccc(Cn2cnc3c(sc4nc(N5CCOCC5)c5c(c43)CCCC5)c2=O)o1`, the cytotoxic concentration (CC50) (as a rule, the concentration that lowers cell viability or growth by half) in test [3] is > 50 µM (active).
With `CC(=O)Oc1ccc(NC(=O)CSc2ccccc2)cc1`, the IC50 in test [4] was < 0.4 µM (not active).
In the case of `COCCOC(=O)C1=C(C)N(Cc2ccccc2)C(=O)NC1c1ccc(OC)cc1` (stereo unspecified), in [3], the CC50 was 23.2 µM (active).
Consider `O=C(NCc1ccc(F)cc1)c1ccc(CS(=O)(=O)Cc2ccccc2F)o1`, for which the EC50 in test [1] was > 150 µM (inactive); in test [2], 6.51 µM (active).
Consider `O=C(NC1CCCCC1)C(c1ccncc1)N(Cc1ccccc1)C(=O)c1ccc(-c2ccccc2)[nH]1` (stereo unspecified), for which, in test [3], the half-maximal cytotoxic concentration (CC50) was 7.92 µM (active). For the same compound, the EC50 in [5] is 0.413 µM (active); in test [6] it was > 60 µM (not active).
`COc1cc(NC(=S)N2CCN(S(=O)(=O)c3ccccc3)CC2)cc(OC)c1`: the EC50 was > 160 µM (inconclusive) in test [1] and > 38 µM (not active) in test [2].
For `CCOC(=O)C1CCCN(C(=O)c2ccc(Cl)c(S(=O)(=O)N3CCCCC3)c2)C1` (stereo unspecified), the EC50 in test [7] was > 260 µM (inactive); in test [9], > 53 µM (inactive). Besides, the IC50 in test [8] is > 47.1 µM (inactive).
On to `O=C(COC(=O)c1c2c(nc3ccccc13)CCCC2)Nc1ccc2c(c1)OCO2`, for which the EC50 in test [10] is 44.5 µM (active).
Take `N#Cc1c(NC(=O)CSC2=NCCS2)sc2c1CCCC2`: in test [3], the CC50 was 22.5 µM (active).
On to `O=C1NC2(CCC3(CC2)OCCO3)NN1c1ccccc1`, for which the EC50 was > 160 µM (inconclusive) in test [1] and > 38 µM (not active) in [2].
For `CCC(Oc1ccccc1)C(=O)Nc1ncc([N+](=O)[O-])s1` (stereo unspecified) the same measures were > 160 µM (inactive) and 1.5 µM (active).
On to `CCS(=O)(=O)c1ccc2oc(SCC(=O)N3CCCCC3)nc2c1`, for which the AC50 (usually the concentration giving half of the maximal activity seen) in [11] was > 70 µM (inactive).
In the case of `O=[N+]([O-])c1ccc(N=Nc2c(O)[nH]c3ccc(F)cc23)cc1`, the 50% cytotoxic concentration (CC50) in test [3] was 26.1 µM (active).
`Cc1ccc(-c2nnn(CC(=O)N(Cc3ccco3)C(C(=O)NC(C)(C)C)c3ccncc3)n2)o1` (stereo unspecified): the EC50 in [1] was > 150 µM (inactive); in test [2] it was > 38 µM (not active).
With `Cc1ccc(S(=O)(=O)N2CCC(Oc3cccc(C(F)(F)F)c3)CC2)cc1`, the CC50 in test [3] was 16.5 µM (active).
For `COc1cc(/C=C(\C#N)C(N)=O)cc(Br)c1O`, the GI50 (commonly the concentration that inhibits growth by half) was > 100 µM (inactive) with P388/ADR and 95.3 µM (inactive) in the test on SN12K1.
As for `CC(C)(C)c1ccc(C2CC2C(=O)N/N=C\c2cc3ccccc3nc2Cl)cc1` (stereo unspecified), the AC50 on Cytochrome P450 1A2 is 28.2 µM (inconclusive); on Cytochrome P450 3A4, 15.8 µM (inconclusive); at Cytochrome P450 2C19, 11.2 µM (inconclusive). Further, in [3], the 50% cytotoxic concentration (CC50) is 20.1 µM (active).
As for `CCCOc1cccc(C(=O)N/N=C/c2coc3ccccc3c2=O)c1`, the EC50 is 28.2 µM (active) in test [1] and > 38 µM (not active) in test [2].
Turning to `Cc1cc(C(=O)N/N=C/c2ccc(O)c([N+](=O)[O-])c2)c(C)n1-c1ccc(F)cc1`, the IC50 in test [4] was 3.74 µM (active).
`CC(=O)Nc1sc(N/N=C\c2ccc(O)cc2)nc1-c1cccs1`: the IC50 in [4] was 2.4 µM (active).

The values are drawn from ChEMBL document CHEMBL1201862, “PubChem BioAssay data set” (2004).
